US9273041B2, “Compounds for the treatment of dyslipidemia and related diseases” (Cadila Healthcare Limited, priority 2012, dated 2016)

Target: PCSK9 (Homo sapiens, UniProt Q8NBP7)
Experiment: PCSK9-LDLR in vitro binding assay (solid phase, ELISA readout)
Settings: read-out: % Inhibition PCSK 9; for inhibition at 10 µM: test compound concentration 10 μM; for inhibition at 100 µM: test compound concentration 100 μM; for inhibition at 1 µM: test compound concentration 1 μM
Protocol: The PCSK9-LDLR in vitro binding Assay is a quantitative solid phase binding assay between PCSK9 and recombinant LDLR. Plates were pre-coated with a recombinant LDLR-AB domain, which binds PCSK9. Test compound at different concentration was added to the PCSK9 and added to LDLR immobilized on the wells. The amount of bound PCSK9 is measured by binding it with biotinylated anti-His-tag monoclonal antibody, followed by binding with horseradish peroxidase conjugated streptavidin substrate. The color was quantified by ELISA reader at […] which reflects the relative amount of PCSK9 that binds to LDLR in presence and absence of the inhibitor. EC50 values were calculated by nonlinear regression analysis using graph pad prism software. Each concentration point represents values in duplicates.

PCSK9, sequence (Q8NBP7 153-692): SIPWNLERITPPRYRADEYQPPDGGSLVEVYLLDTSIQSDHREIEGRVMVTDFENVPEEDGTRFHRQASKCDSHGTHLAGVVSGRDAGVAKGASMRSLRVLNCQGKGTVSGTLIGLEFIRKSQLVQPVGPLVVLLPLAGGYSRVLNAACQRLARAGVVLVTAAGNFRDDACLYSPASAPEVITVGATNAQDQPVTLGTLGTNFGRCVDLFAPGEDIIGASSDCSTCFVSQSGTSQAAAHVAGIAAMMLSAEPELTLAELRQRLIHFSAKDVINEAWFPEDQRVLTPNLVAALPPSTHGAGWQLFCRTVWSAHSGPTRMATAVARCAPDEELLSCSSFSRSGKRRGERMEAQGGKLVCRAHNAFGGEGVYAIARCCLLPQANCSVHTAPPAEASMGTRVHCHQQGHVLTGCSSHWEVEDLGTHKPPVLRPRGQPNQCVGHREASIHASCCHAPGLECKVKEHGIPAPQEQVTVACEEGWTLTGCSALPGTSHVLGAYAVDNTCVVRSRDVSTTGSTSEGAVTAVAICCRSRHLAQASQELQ
PCSK9, sequence (Q8NBP7 31-152 partner limits assumed): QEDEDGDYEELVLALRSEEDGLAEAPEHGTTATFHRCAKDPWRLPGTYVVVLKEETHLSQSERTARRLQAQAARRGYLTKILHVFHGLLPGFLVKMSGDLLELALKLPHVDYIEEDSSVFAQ

| SMILES | inhibition at 10 µM | inhibition at 100 µM | inhibition at 1 µM |
| --- | --- | --- | --- |
| Cc1nc(-c2ccc(C(F)(F)F)cc2)sc1-c1ccc(OCC(=O)NCC2CCOCC2)cc1 [Example 12, 2-(4-(4-methyl-2-(4-(trifluoromethyl)phenyl)thiazol-5-yl)phenoxy)-N-((tetrahydro-2H-pyran-4-yl)methyl)acetamide] | 33% | 36% | – |
| Cc1nc(-c2ccccc2)sc1-c1ccc(OCC(=O)NCC2CCOCC2)cc1 [Example 11, 2-(4-(4-methyl-2-phenylthiazol-5-yl)phenoxy)-N-((tetrahydro-2H-pyran-4-yl)methyl)acetamide] | 44% | 53% | 30% |
| O=C(COc1ccc(-c2nnc(-c3ccc(C(F)(F)F)cc3)o2)cc1)NCC1CCOCC1 [Example 31, N-((tetrahydro-2H-pyran-4-yl)methyl)-2-(4-(5-(4-(trifluoromethyl)phenyl)-1,3,4-oxadiazol-2-yl)phenoxy)acetamide] | 34% | 36% | 25% |
| O=C(COc1ccc(C2CN(c3ccc(F)cc3)C(=O)O2)cc1)NCC1CCOCC1 (stereo not drawn) [Example 35, 2-(4-(3-(4-fluorophenyl)-2-oxooxazolidin-5-yl)phenoxy)-N-((tetrahydro-2H-pyran-4-yl)methyl)acetamide] | 54% | 61% | 14% |
| COc1cc(-c2ccc(OCC(=O)NCC3CCOCC3)cc2)nn1-c1ccccc1 [Example 10, 2-(4-(5-methoxy-1-phenyl-1H-pyrazol-3-yl)phenoxy)-N-((tetrahydro-2H-pyran-4-yl)methyl)acetamide] | 40% | 56% | 33% |
| Cc1c(-c2ccc(OCC(=O)NCC3CCOCC3)cc2)noc1-c1ccccc1 [Example 1, 2-(4-(4-Methyl-5-phenylisoxazol-3-yl)phenoxy)-N-((tetrahydro-2H-pyran-4-yl)methyl)acetamide] | 42% | 68% | – |
| COc1cc(-c2ccc(OCC(=O)NCC3CCOCC3)cc2)nn1-c1ccc(F)cc1 [Example 9, 2-(4-(1-(4-fluorophenyl)-5-methoxy-1H-pyrazol-3-yl)phenoxy)-N-((tetrahydro-2H-pyran-4-yl)methyl)acetamide] | 41% | 64% | 37% |
| O=C(COc1ccc(-n2cc(-c3ccccc3)nn2)cc1)NCC1CCOCC1 [Example 37, 2-(4-(4-phenyl-1H-1,2,3-triazol-1-yl)phenoxy)-N-((tetrahydro-2H-pyran-4-yl)methyl)acetamide] | 58% | 78% | 25% |
| COc1cc(-c2ccc(OCC(=O)NCC3CCOCC3)cc2)nn1Cc1ccc(C(F)(F)F)cc1 [Example 38, 2-(4-(5-methoxy-1-(4-(trifluoromethyl)benzyl)-1H-pyrazol-3-yl)phenoxy)-N-((tetrahydro-2H-pyran-4-yl)methyl)acetamide] | 39% | 59% | 27% |
| COc1cc(-c2ccc(OCC(=O)NCC3CCOCC3)cc2)nn1-c1ccc(C(F)(F)F)cc1 [Example 8, 2-(4-(5-methoxy-1-(4-(trifluoromethyl)phenyl)-1H-pyrazol-3-yl)phenoxy)-N-((tetrahydro-2H-pyran-4-yl)methyl)acetamide] | 73% | 58% | – |
| Cc1c(-c2ccc(OCC(=O)NCC3CCOCC3)cc2)nsc1-c1ccccc1 [Example 7, 2-(4-(4-methyl-5-phenylisothiazol-3-yl)phenoxy)-N-((tetrahydro-2H-pyran-4-yl)methyl)acetamide] | 22% | 55% | 22% |
| COc1ccc(N2CC(c3ccc(OCC(=O)NCC4CCOCC4)cc3)OC2=O)cc1 (stereo not drawn) [Example 36, 2-(4-(3-(4-methoxyphenyl)-2-oxooxazolidin-5-yl)phenoxy)-N-((tetrahydro-2H-pyran-4-yl)methyl)acetamide] | 24% | 61% | 47% |

The next lines start with the values.

| inhibition at 10 µM | inhibition at 100 µM | inhibition at 1 µM | SMILES |
| --- | --- | --- | --- |
| 23% | 30% | 13% | COc1ccc(-c2nnc(-c3ccc(OCC(=O)NCC4CCOCC4)cc3)o2)cc1 [Example 32, 2-(4-(5-(4-methoxyphenyl)-1,3,4-oxadiazol-2-yl)phenoxy)-N-((tetrahydro-2H-pyran-4-yl)methyl)acetamide] |
| 35% | 65% | 33% | Cc1c(-c2ccc(OCC(=O)NCC3CCOCC3)cc2)noc1-c1ccc(F)cc1 [Example 3, 2-(4-(5-(4-fluorophenyl)-4-methylisoxazol-3-yl)phenoxy)-N-((tetrahydro-2H-pyran-4-yl)methyl)acetamide] |
| 53% | – | – | Cc1oc(-c2ccc(C(F)(F)F)cc2)nc1-c1ccc(OCC(=O)NCC2CCOCC2)cc1 [Example 18, 2-(4-(5-methyl-2-(4-(trifluoromethyl)phenyl)oxazol-4-yl)phenoxy)-N-((tetrahydro-2H-pyran-4-yl)methyl)acetamide] |
| 50% | 64% | 37% | O=C(COc1ccc(-c2noc(-c3ccc(C(F)(F)F)cc3)n2)cc1)NCC1CCOCC1 [Example 25, N-((tetrahydro-2H-pyran-4-yl)methyl)-2-(4-(5-(4-(trifluoromethyl)phenyl)-1,2,4-oxadiazol-3-yl)phenoxy)acetamide] |
| 30% | 54% | 27% | Cc1ccc(-c2nc(-c3ccc(OCC(=O)NCC4CCOCC4)cc3)c(C)o2)cc1 [Example 22, 2-(4-(5-methyl-2-(p-tolyl)oxazol-4-yl)phenoxy)-N-((tetrahydro-2H-pyran-4-yl)methyl)acetamide] |
| 30% | 78% | 17% | Cc1nc(-c2ccc(F)cc2)sc1-c1ccc(OCC(=O)NCC2CCOCC2)cc1 [Example 13, 2-(4-(2-(4-fluorophenyl)-4-methylthiazol-5-yl)phenoxy)-N-((tetrahydro-2H-pyran-4-yl)methyl)acetamide] |
| 38% | 63% | 40% | Cc1oc(-c2ccccc2)nc1-c1ccc(OCC(=O)NCC2CCOCC2)cc1 [Example 17, 2-(4-(5-methyl-2-phenyloxazol-4-yl)phenoxy)-N-((tetrahydro-2H-pyran-4-yl)methyl)acetamide] |
| 67% | 71% | 49% | Cc1c(-c2ccc(OCC(=O)NCC3CCOCC3)cc2)noc1-c1ccc(C(F)(F)F)cc1 [Example 5, 2-(4-(4-methyl-5-(4-(trifluoromethyl)phenyl)isoxazol-3-yl)phenoxy)-N-((tetrahydro-2H-pyran-4-yl)methyl)acetamide] |
| 24% | 50% | – | Cc1oc(-c2ccc(F)cc2)nc1-c1ccc(OCC(=O)NCC2CCOCC2)cc1 [Example 19, 2-(4-(2-(4-fluorophenyl)-5-methyloxazol-4-yl)phenoxy)-N-((tetrahydro-2H-pyran-4-yl)methyl)acetamide] |
| 9% | 15% | – | Cc1nc(-c2ccc(OCC(=O)NCC3CCOCC3)cc2)oc1C [Example 39, 2-(4-(4,5-dimethyloxazol-2-yl)phenoxy)-N-((tetrahydro-2H-pyran-4-yl)methyl)acetamide] |
| 9% | 33% | – | Cc1onc(-c2ccc(OCC(=O)NCC3CCOCC3)cc2)c1-c1ccccc1 [Example 2, 2-(4-(5-methyl-4-phenylisoxazol-3-yl)phenoxy)-N-((tetrahydro-2H-pyran-4-yl)methyl)acetamide] |
| 20% | 32% | 19% | O=C(COc1ccc(-c2nnc(-c3ccc(F)cc3)o2)cc1)NCC1CCOCC1 [Example 30, 2-(4-(5-(4-fluorophenyl)-1,3,4-oxadiazol-2-yl)phenoxy)-N-((tetrahydro-2H-pyran-4-yl)methyl)acetamide] |
| 17% | 34% | 12% | Cc1ccc(-c2onc(-c3ccc(OCC(=O)NCC4CCOCC4)cc3)c2C)cc1 [Example 6, 2-(4-(4-methyl-5-(p-tolyl)isoxazol-3-yl)phenoxy)-N-((tetrahydro-2H-pyran-4-yl)methyl)acetamide] |
| 76% | 35% | 49% | Cc1oc(-c2cccnc2)nc1-c1ccc(OCC(=O)NCC2CCOCC2)cc1 [Example 24, 2-(4-(5-methyl-2-(pyridin-3-yl)oxazol-4-yl)phenoxy)-N-((tetrahydro-2H-pyran-4-yl)methyl)acetamide] |
| 36% | 29% | – | Cc1c(-c2ccc(OCC(=O)NCC3CCOCC3)cc2)noc1-c1ccc(Cl)cc1 [Example 4, 2-(4-(5-(4-chlorophenyl)-4-methylisoxazol-3-yl)phenoxy)-N-((tetrahydro-2H-pyran-4-yl)methyl)acetamide] |
